Source: patent US8445476B2, “Carbacephem β-lactam antibiotics” (Achaogen, Inc., priority 2007, dated 2013)
≈ marks a conversion by molar mass, not a printed value.

Key:
Format in all cases: cell-based
[1] = tested on: S. aureus ASAU001 (Susceptible Organism ATCC 29213); assay: MIC assay, S. aureus ASAU001; conditions: Staphylococcus aureus, ATCC29213, read-out: MIC ASAU 001
Experimental: (§1) The in vitro MIC for bacterial isolates may be obtained in the following manner: a test compound is incorporated into a series of two-fold dilutions in cation adjusted Mueller-Hinton broth (CAMHB). Different bacterial strains diluted to provide a uniform inoculum are added to the CAMHB containing test compounds. A well without test compound is included for each strain as a growth control. […] The procedures used in these experiments are generally those standardized by the Clinical and Laboratory Standards Institute (CLSI), as set forth in the CLSI publication entitled “M7-A7. Methods for dilution antimicrobial susceptibility tests for bacteria that grow aerobically; approved standard-seventh edition.” (2006), which is incorporated by reference as if fully set forth herein. The following exemplifies such a procedure although it is to be understood that modifications of the procedure may be implemented as required.
(§2) Two-fold dilutions of the test compounds are prepared in CAMHB at 2× the concentration range to be tested if the compounds are soluble in aqueous solution. Alternately, dimethylsulfoxide (DMSO) is used to prepare two-fold dilutions at 10× the concentration range to be tested. Reference drugs such as cefotaxime, vancomycin or imipenem are used as positive controls. A few isolated colonies are retrieved from a pure culture prepared on an agar plate and suspended in PBS until the turbidity of the suspension matches a 0.5 McFarland standard which is equal to approximately 10^8 sCFU/mL. This solution is further diluted in CAMHB to 10^6CFU/mL if compounds are diluted in CAMHB and 5×10^5 CFU/mL if compounds are diluted in DMSO. The CAMHB plates containing the compound dilutions are combined in equal volumes with the higher density inoculum, or 10 μL of the DMSO dilutions are added to the lower density inoculum. When S. aureus is the organism being tested and the compound is oxacillin, a beta-lactam or a carbacephem compound of the present invention, 2% NaCl is added to the growth media. The plates are then incubated for 16-20 hours at 35° C. The plates are then observed to determine which concentration of the test compound is the MIC.

[2] = tested on: S. aureus ASAU1028 (CA-MRSA, USA400); assay: MIC assay, S. aureus ASAU1028; conditions: Staphylococcus aureus, read-out: MIC ASAU 1028
Experimental: as §1, §2

[3] = tested on: S. aureus ASAU1029 (CA-MRSA, USA300); assay: MIC assay, S. aureus ASAU1029; conditions: Staphylococcus aureus, read-out: MIC ASAU 1029
Experimental: as §1, §2

[4] = tested on: S. aureus ASAU002 (MRSA ATCC 33591); assay: MIC assay, S. aureus ASAU002; conditions: Staphylococcus aureus; S. aureus ASAU002, MRSA ATCC 33591; read-out: MIC ASAU 002
Experimental: as §1, §2

[5] = tested on: S. aureus ASAU1043 (MRSA, CIP, ERY, CLI, GEN resistant); assay: MIC assay, S. aureus ASAU1043; conditions: Staphylococcus aureus, read-out: MIC ASAU 1043
Experimental: as §1, §2

[6] = tested on: S. aureus ASAU1033 (MRSA, CIP, ERY, CLIN, TET, GEN resistant); assay: MIC assay, S. aureus ASAU1033; conditions: Staphylococcus aureus, read-out: MIC ASAU 1033
Experimental: as §1, §2

SMILES	MIC [1]	MIC [2]	MIC [3]	MIC [4]	MIC [5]	MIC [6]
Nc1nc(/C(=N/O)C(=O)N[C@@H]2C(=O)N3C(C(=O)O)=C(Sc4ccncc4)CC[C@H]23)c(Cl)s1 [27/1, (6R,7S,Z)-7-(2-(2-amino-5-chlorothiazol-4-yl)-2-(hydroxyimino)acetamido)-8-oxo-3-(pyridin-4-ylthio)-1-aza-bicyclo[4.2.0]oct-2-ene-2-carboxylic Acid]	≤ 1 µg/mL	≤ 1 µg/mL	≤ 1 µg/mL	1 to 8 µg/mL (≈ 2.02 to 16.2 µM)	1 to 8 µg/mL (≈ 2.02 to 16.2 µM)	1 to 8 µg/mL (≈ 2.02 to 16.2 µM)
Nc1nc(/C(=N\O)C(=O)NC2C(=O)N3C(C(=O)O)=C(/C=C4\CCN(C5CCNC5)C4=O)CS[C@H]23)ns1 (some centres unmarked) [Comparative Compound 1, reference compound]	≤ 1 µg/mL	1 to 8 µg/mL (≈ 1.87 to 15 µM)	≤ 1 µg/mL	1 to 8 µg/mL (≈ 1.87 to 15 µM)	1 to 8 µg/mL (≈ 1.87 to 15 µM)	1 to 8 µg/mL (≈ 1.87 to 15 µM)
CO/N=C(\C(=O)N[C@@H]1C(=O)N2C(C(=O)O)=C(Sc3cccnc3CSC3CCNC3)CC[C@H]12)c1nc(N)sc1Cl (stereo partly drawn) [42/1, (6R,7S,Z)-7-(2-(2-amino-5-chlorothiazol-4-yl)-2-(methoxyimino)acetamido)-8-oxo-3-(2-((pyrrolidin-3-ylthio)methyl)pyridin-3-ylthio)-1-aza-bicyclo[4.2.0]oct-2-ene-2-carboxylic Acid]	≤ 1 µg/mL	1 to 8 µg/mL (≈ 1.6 to 12.8 µM)	1 to 8 µg/mL (≈ 1.6 to 12.8 µM)	1 to 8 µg/mL (≈ 1.6 to 12.8 µM)	> 8 µg/mL	1 to 8 µg/mL (≈ 1.6 to 12.8 µM)
NCc1ncccc1SC1=C(C(=O)O)N2C(=O)[C@@H](NC(=O)/C(=N\O)c3nc(N)sc3Cl)[C@H]2CC1 [31/1, (6R,7S,Z)-7-(2-(2-amino-5-chlorothiazol-4-yl)-2-(hydroxyimino)acetamido)-3-(2-(aminomethyl)pyridin-3-ylthio)-8-oxo-1-aza-bicyclo[4.2.0]oct-2-ene-2-carboxylic Acid]	≤ 1 µg/mL	≤ 1 µg/mL	≤ 1 µg/mL		1 to 8 µg/mL (≈ 1.91 to 15.3 µM)	1 to 8 µg/mL (≈ 1.91 to 15.3 µM)
CO/N=C(\C(=O)N[C@@H]1C(=O)N2C(C(=O)O)=C(Sc3cccnc3CN)CC[C@H]12)c1nc(N)sc1Cl [43/1, (6R,7S,Z)-7-(2-(2-amino-5-chlorothiazol-4-yl)-2-(methoxyimino)acetamido)-3-(2-(aminomethyl)pyridin-3-ylthio)-8-oxo-1-aza-bicyclo[4.2.0]oct-2-ene-2-carboxylic acid]	≤ 1 µg/mL	> 8 µg/mL	> 8 µg/mL		> 8 µg/mL	> 8 µg/mL
CO/N=C(\C(=O)N[C@@H]1C(=O)N2C(C(=O)O)=C(Sc3nnc(N)s3)CC[C@H]12)c1nsc(N)n1 [49/1, (6R,7S,Z)-7-(2-(5-amino-1,2,4-thiadiazol-3-yl)-2-(methoxyimino)acetamido)-3-(5-amino-1,3,4-thiadiazol-2-ylthio)-8-oxo-1-aza-bicyclo[4.2.0]oct-2-ene-2-carboxylic Acid]	≤ 1 µg/mL	> 8 µg/mL	1 to 8 µg/mL (≈ 2.01 to 16.1 µM)		> 8 µg/mL	> 8 µg/mL
CO/N=C(\C(=O)N[C@@H]1C(=O)N2C(C(=O)O)=C(Sc3cccnc3CSCCN)CC[C@H]12)c1nsc(N)n1 [51/1, (6R,7S,Z)-7-(2-(5-amino-1,2,4-thiadiazol-3-yl)-2-(methoxyimino)acetamido)-3-(2-((2-aminoethylthio)methyl)pyridin-3-ylthio)-8-oxo-1-aza-bicyclo[4.2.0]oct-2-ene-2-carboxylic Acid]	≤ 1 µg/mL	1 to 8 µg/mL (≈ 1.77 to 14.2 µM)	1 to 8 µg/mL (≈ 1.77 to 14.2 µM)		> 8 µg/mL	> 8 µg/mL
CO/N=C(\C(=O)N[C@@H]1C(=O)N2C(C(=O)O)=C(Sc3ccncc3)CC[C@H]12)c1nc(N)sc1Cl [37/1, (6R,7S,Z)-7-(2-(2-amino-5-chlorothiazol-4-yl)-2-(methoxyimino)acetamido)-8-oxo-3-(pyridin-4-ylthio)-1-aza-bicyclo[4.2.0]oct-2-ene-2-carboxylic Acid]	≤ 1 µg/mL	1 to 8 µg/mL (≈ 1.96 to 15.7 µM)	> 8 µg/mL		> 8 µg/mL	1 to 8 µg/mL (≈ 1.96 to 15.7 µM)
NCCSCc1ncccc1SC1=C(C(=O)O)N2C(=O)[C@@H](NC(=O)/C(=N\O)c3nsc(N)n3)[C@H]2CC1 [47/1, (6R,7S,Z)-7-(2-(5-amino-1,2,4-thiadiazol-3-yl)-2-(hydroxyimino)acetamido)-3-(2-((2-aminoethylthio)methyl)pyridin-3-ylthio)-8-oxo-1-aza-bicyclo[4.2.0]oct-2-ene-2-carboxylic Acid]	≤ 1 µg/mL	1 to 8 µg/mL (≈ 1.82 to 14.5 µM)	≤ 1 µg/mL		1 to 8 µg/mL (≈ 1.82 to 14.5 µM)	1 to 8 µg/mL (≈ 1.82 to 14.5 µM)
CO/N=C(\C(=O)N[C@@H]1C(=O)N2C(C(=O)O)=C(Sc3nc(C)c(C)s3)CC[C@H]12)c1nc(N)sc1Cl [38/1, (6R,7S,Z)-7-(2-(2-amino-5-chlorothiazol-4-yl)-2-(methoxyimino)acetamido)-3-(4,5-dimethylthiazol-2-ylthio)-8-oxo-1-aza-bicyclo[4.2.0]oct-2-ene-2-carboxylic Acid]	≤ 1 µg/mL	≤ 1 µg/mL	≤ 1 µg/mL		> 8 µg/mL	1 to 8 µg/mL (≈ 1.84 to 14.7 µM)
CO/N=C(\C(=O)N[C@@H]1C(=O)N2C(C(=O)O)=C(Sc3nncs3)CC[C@H]12)c1nsc(N)n1 [50/1, (6R,7S,Z)-3-(1,3,4-thiadiazol-2-ylthio)-7-(2-(5-amino-1,2,4-thiadiazol-3-yl)-2-(methoxyimino)acetamido)-8-oxo-1-aza-bicyclo[4.2.0]oct-2-ene-2-carboxylic Acid]	≤ 1 µg/mL	1 to 8 µg/mL (≈ 2.07 to 16.6 µM)	1 to 8 µg/mL (≈ 2.07 to 16.6 µM)		> 8 µg/mL	> 8 µg/mL
CO/N=C(\C(=O)N[C@@H]1C(=O)N2C(C(=O)O)=C(Sc3cccnc3N)CC[C@H]12)c1nc(N)sc1Cl [40/1, (6R,7S)-7-(2-(2-amino-5-chlorothiazol-4-yl)-2-(methoxyimino)acetamido)-3-(2-aminopyridin-3-ylthio)-8-oxo-1-aza-bicyclo[4.2.0]oct-2-ene-2-carboxylic acid]	≤ 1 µg/mL	1 to 8 µg/mL (≈ 1.91 to 15.3 µM)	> 8 µg/mL		> 8 µg/mL	> 8 µg/mL
Nc1nc(/C(=N/O)C(=O)N[C@@H]2C(=O)N3C(C(=O)O)=C(Sc4nncs4)CC[C@H]23)ns1 [46/1, (6R,7S,Z)-3-(1,3,4-thiadiazol-2-ylthio)-7-(2-(5-amino-1,2,4-thiadiazol-3-yl)-2-(hydroxyimino)acetamido)-8-oxo-1-aza-bicyclo[4.2.0]oct-2-ene-2-carboxylic Acid]	≤ 1 µg/mL	1 to 8 µg/mL (≈ 2.13 to 17.1 µM)	≤ 1 µg/mL		> 8 µg/mL	> 8 µg/mL
CO/N=C(\C(=O)N[C@@H]1C(=O)N2C(C(=O)O)=C(Sc3ccncc3CSCCN)CC[C@H]12)c1nsc(N)n1 [52/1, (6R,7S,Z)-7-(2-(5-amino-1,2,4-thiadiazol-3-yl)-2-(methoxyimino)acetamido)-3-(3-((2-aminoethylthio)methyl)pyridin-4-ylthio)-8-oxo-1-aza-bicyclo[4.2.0]oct-2-ene-2-carboxylic acid]	≤ 1 µg/mL	1 to 8 µg/mL (≈ 1.77 to 14.2 µM)	1 to 8 µg/mL (≈ 1.77 to 14.2 µM)		> 8 µg/mL	1 to 8 µg/mL (≈ 1.77 to 14.2 µM)
Nc1nc(/C(=N/O)C(=O)N[C@@H]2C(=O)N3C(C(=O)O)=C(Sc4cccnc4N)CC[C@H]23)c(Cl)s1 [28/1, (6R,7S,Z)-7-(2-(2-amino-5-chlorothiazol-4-yl)-2-(hydroxyimino)acetamido)-3-(2-aminopyridin-3-ylthio)-8-oxo-1-aza-bicyclo[4.2.0]oct-2-ene-2-carboxylic Acid]	≤ 1 µg/mL	≤ 1 µg/mL	1 to 8 µg/mL (≈ 1.96 to 15.7 µM)		> 8 µg/mL	> 8 µg/mL
Nc1nc(/C(=N/O)C(=O)N[C@@H]2C(=O)N3C(C(=O)O)=C(Sc4ccncc4)CC[C@H]23)ns1 [44/1, (6R,7S,Z)-7-(2-(5-amino-1,2,4-thiadiazol-3-yl)-2-(hydroxyimino)acetamido)-8-oxo-3-(pyridin-4-ylthio)-1-aza-bicyclo[4.2.0]oct-2-ene-2-carboxylic Acid]	≤ 1 µg/mL	1 to 8 µg/mL (≈ 2.17 to 17.3 µM)	≤ 1 µg/mL		> 8 µg/mL	> 8 µg/mL
